{"source": "patent US6544930B2", "about": "“Compact storage and shipping system for glyphosate herbicide” (Monsanto Technology LLC, priority 1998, dated 2003)", "key": {"[1]": {"assay": "Specific gravity / density of aqueous glyphosate salt solutions and compositions (Mettler DA-300 meter)", "assay_type": "physicochemical", "protocol": "Specific gravities are measured using a Mettler DA-300 Density/Specific Gravity Meter.\nIn a 1 liter glass vessel with magnetic stirrer are mixed 479.2 g glyphosate acid, technical grade (assay 96%), 166.0 g monoethanolamine and water to 1000 g. Reaction of the glyphosate acid with the monoethanolamine to form the MEA salt of glyphosate is exothermic. The reaction mixture is allowed to cool to room temperature. […] The density of the solution at 25° C. is […], thus the volume at 25° C. of 1000 g of this solution is 763 ml and the weight/volume concentration of glyphosate is 602 g a.e./l.\nA series of aqueous solutions of glyphosate MEA salt, having a range of glyphosate a.e. concentrations, are prepared by the general procedure of Example 1. Specific gravity is measured for each solution.\n[…] Cloud point is a measure of the maximum temperature at which a given aqueous composition containing a surfactant and a salt at defined concentrations forms a single-phase solution. Above the cloud point, the surfactant separates from the solution, initially as a hazy or cloudy dispersion, and, upon standing, as a distinct phase generally rising to the surface of the solution. Cloud point is determined by heating the composition until the solution becomes cloudy, and then allowing the composition to cool, with agitation, while its temperature is continuously monitored. A temperature reading taken when the solution clears is a measure of cloud point."}, "[2]": {"details": "cited from earlier work"}, "[3]": {"assay": "Viscosity of glyphosate salt solutions and compositions", "assay_type": "physicochemical", "details": "25° C.; 46% a.e. by weight solution without surfactant", "protocol": "Specific gravity (20/15.6° C.), viscosity at 25° C. and cloud point are recorded for each composition prepared as shown in Table 5. Cloud point is a measure of the maximum temperature at which a given aqueous composition containing a surfactant and a salt at defined concentrations forms a single-phase solution. Above the cloud point, the surfactant separates from the solution, initially as a hazy or cloudy dispersion, and, upon standing, as a distinct phase generally rising to the surface of the solution. Cloud point is determined by heating the composition until the solution becomes cloudy, and then allowing the composition to cool, with agitation, while its temperature is continuously monitored. A temperature reading taken when the solution clears is a measure of cloud point.\nThe maximum surfactant concentration attainable in practice in an aqueous concentrate composition containing glyphosate salt at 540 g a.e./l is compared for MEA and IPA salts. This is determined by adding a selected surfactant in increments to a 46% a.e. by weight aqueous solution of the glyphosate salt until the glyphosate weight/volume concentration falls from its initial level (565 g a.e./l for IPA salt, 602 g a.e./l for MEA salt) to 540 g a.e./l. […] When the maximum attainable surfactant concentration is reached, viscosity is measured at 25° C. […]"}, "[4]": {"assay": "Glyphosate a.e. weight/volume concentration of salt solution", "assay_type": "physicochemical", "details": "for weight/volume concentration of glyphosate: 25° C., 46.0% by weight glyphosate a.e.; for glyphosate a.e. contained in 1 liter of solution: 30% a.e. by weight solution at 20° C.; for more glyphosate a.e. per liter than IPA salt solution: equal a.e. weight concentration (30% a.e. by weight, 20° C.)", "protocol": "Thus 1 liter of 30% a.e. by weight glyphosate potassium salt solution at 20° C. contains approximately 376 g glyphosate a.e./l, whereas 1 liter of 30% a.e. by weight glyphosate IPA salt solution at 20° C. contains approximately 347 g glyphosate a.e./l. In other words, at equal a.e. weight concentration, the potassium salt solution delivers about 8% more glyphosate a.e. per liter.\nSimilarly, 1 liter of 30% a.e. by weight glyphosate MEA salt solution at 20° C. contains approximately 371 g glyphosate a.e./l. Therefore at equal a.e. weight concentration, the MEA salt solution delivers about 7% more glyphosate a.e. per liter than an IPA salt solution.\nIn a 1 liter glass vessel with magnetic stirrer are mixed 479.2 g glyphosate acid, technical grade (assay 96%), 166.0 g monoethanolamine and water to 1000 g. Reaction of the glyphosate acid with the monoethanolamine to form the MEA salt of glyphosate is exothermic. The reaction mixture is allowed to cool to room temperature. The specific gravity (20/15.6° C.) of the resulting 62.6% by weight aqueous solution of glyphosate MEA salt, containing 46.0% by weight glyphosate a.e., is measured and found to be 1.32. The density of the solution at 25° C. is […], thus the volume at 25° C. of 1000 g of this solution is 763 ml and the weight/volume concentration of glyphosate is 602 g a.e./l."}, "[5]": {"assay": "Maximum attainable surfactant concentration at 540 g a.e./l glyphosate", "assay_type": "physicochemical", "protocol": "The maximum surfactant concentration attainable in practice in an aqueous concentrate composition containing glyphosate salt at 540 g a.e./l is compared for MEA and IPA salts. This is determined by adding a selected surfactant in increments to a 46% a.e. by weight aqueous solution of the glyphosate salt until the glyphosate weight/volume concentration falls from its initial level (565 g a.e./l for IPA salt, 602 g a.e./l for MEA salt) to 540 g a.e./l. The study is conducted using either Surfactant A or Surfactant F of Table 3 above. When the maximum attainable surfactant concentration is reached, viscosity is measured at 25° C."}, "[6]": {"assay": "Solubility in water", "assay_type": "physicochemical", "details": "20° C.; for solubility in pure water: weight of salt per weight of solution", "description": "Solubility in water of the potassium and MEA salts of glyphosate is believed not to be recorded in prior art but is readily determined by procedures familiar to those skilled in the art. Similarly, aqueous solutions of these salts at concentrations greater than about 40% by weight are believed not to have been specifically disclosed, thus any unusual or unpredicted properties of such solutions have not been publicly known. Concentrations expressed as percent by weight herein relate to parts by weight of salt or acid equivalent per 100 parts by weight of solution.\nThe solubility of the MEA salt is very similar to the solubility of the IPA salt."}, "[7]": {"details": "20/18.6° C., 30% a.e. by weight monobasic salt solution"}, "[8]": {"details": "20/15.6° C., solution containing 46.0% by weight glyphosate a.e."}, "[9]": {"details": "MEA salt solution 29.9% a.e. by weight, IPA salt solution 30.2%"}}, "note": "Counter-ions that a name gives are not always drawn."}
{"smiles": "O=C(O)CNCP(=O)(O)O", "values": [{"measurement": "Specific Gravity", "setting": "[1]; [7]", "value": 1.1814}]}
{"smiles": "CCN.O=C(O)CNCP(=O)(O)O", "values": [{"measurement": "Specific Gravity", "setting": "[1]; [7]", "value": 1.1599}]}
{"smiles": "CCCN.O=C(O)CNCP(=O)(O)O", "values": [{"measurement": "Specific Gravity", "setting": "[1]; [7]", "value": 1.1429}]}
{"smiles": "O=C(O)CNCP(=O)(O)O", "note": "[Glyphosate, N-phosphonomethylglycine]", "values": [{"measurement": "solubility in water", "setting": "[2]; 25° C.", "value": 1.16, "unit": "% by weight"}]}
{"smiles": "CC(C)N.O=C(O)CNCP(=O)(O)O", "note": "[glyphosate IPA salt, isopropylammonium salt of glyphosate]", "values": [{"measurement": "Specific Gravity", "setting": "[1]; [8]", "value": 1.24}, {"measurement": "Specific Gravity", "setting": "[1]; [7]", "value": 1.1554}, {"measurement": "Specific Gravity", "setting": "[1]; [9]", "value": 1.1566}, {"measurement": "limit of solubility in aqueous solution", "setting": "[2]; only slightly higher than about 62% by weight", "value": "> 62", "unit": "% by weight"}, {"measurement": "viscosity", "setting": "[3]", "value": 165, "unit": "cPs"}, {"measurement": "weight/volume concentration of glyphosate", "setting": "[4]", "value": 565, "unit": "g a.e./l"}, {"measurement": "glyphosate a.e. contained in 1 liter of solution", "setting": "[4]", "value": "approximately 347 g glyphosate a.e./l"}]}
{"smiles": "O=C(O)CNCP(=O)(O)O", "note": "[glyphosate MEA salt, monoethanolammonium salt of glyphosate]", "values": [{"measurement": "surfactant concentration relative to the maximum attainable using the IPA salt", "setting": "[5]", "value": "more than 2.5 times"}, {"measurement": "solubility in pure water as glyphosate acid equivalent", "setting": "[6]", "value": "about 47 % a.e. by weight"}, {"measurement": "solubility in pure water as glyphosate acid equivalent", "setting": "[6]; listed as MEA salt", "value": "about 47 % a.e. by weight"}, {"measurement": "solubility in pure water", "setting": "[6]", "value": "about 64 % by weight"}, {"measurement": "Specific Gravity", "setting": "[1]; [8]", "value": 1.32}, {"measurement": "Specific Gravity", "setting": "[1]; 20/18.6° C., 30% a.e. by weight monobasic salt solution, listed as monoethanolammonium (MEA)", "value": 1.2357}, {"measurement": "specific gravity higher than that of 30.2% IPA salt solution", "setting": "[1]; 29.9% a.e. by weight MEA salt solution", "value": 3.7, "unit": "%"}, {"measurement": "Specific Gravity", "setting": "[1]; [9]", "value": 1.1991}, {"measurement": "specific gravity compared with corresponding IPA salt solution", "setting": "[1]; all concentrations, FIG. 1", "value": "significantly higher"}, {"measurement": "viscosity", "setting": "[3]", "value": 88, "unit": "cPs"}, {"measurement": "weight/volume concentration of glyphosate", "setting": "[4]", "value": 602, "unit": "g a.e./l"}, {"measurement": "glyphosate a.e. contained in 1 liter of solution", "setting": "[4]", "value": "approximately 371 g glyphosate a.e./l"}, {"measurement": "more glyphosate a.e. per liter than IPA salt solution", "setting": "[4]", "value": "about 7%"}]}
{"smiles": "O=C(O)CNCP(=O)(O)O", "note": "[glyphosate potassium salt]", "values": [{"measurement": "solubility in pure water as glyphosate acid equivalent", "setting": "[6]; listed as potassium salt, potassium salt", "value": "about 44 % a.e. by weight"}, {"measurement": "solubility in pure water as glyphosate acid equivalent", "setting": "[6]; potassium salt", "value": "about 44 % a.e. by weight"}, {"measurement": "solubility in pure water", "setting": "[6]; potassium salt", "value": "about 54 % by weight"}, {"measurement": "Specific Gravity", "setting": "[1]; 20/18.6° C., 30% a.e. by weight monobasic salt solution, potassium salt", "value": 1.2539}, {"measurement": "glyphosate a.e. contained in 1 liter of solution", "setting": "[4]; potassium salt", "value": "approximately 376 g glyphosate a.e./l"}, {"measurement": "more glyphosate a.e. per liter than IPA salt solution", "setting": "[4]; potassium salt", "value": "about 8%"}]}
{"smiles": "CN", "note": "[methylammonium]", "values": [{"measurement": "Specific Gravity", "setting": "[1]; [7]", "value": 1.1667}]}
{"smiles": "C[S+](C)C.O=C([O-])CNCP(=O)(O)O", "note": "[trimethylsulfonium (TMS)]", "values": [{"measurement": "Specific Gravity", "setting": "[1]; [7]", "value": 1.1904}]}
